Measured values from US10087188B2, “Benzamide imidazopyrazine Btk inhibitors” (MERCK SHARP & DOHME CORP., priority 2014, dated 2018).
Like-named read-outs stand apart in the source and are kept apart here.

What was measured:
[1] = molecular target: BTK enzyme (recombinant full-length BTK, hBTK) (Homo sapiens (Human), UniProt Q06187); experiment: Btk enzyme activity assay, LANCE TR-FRET; format: biochemical; conditions: 50 pM hBTK, 2 μM biotin-A5-peptide, 25 μM ATP; 60 minute compound & enzyme incubation; read-out: BTK binding IC50
BTK enzyme (recombinant full-length BTK, hBTK), sequence (Q06187 whole entry): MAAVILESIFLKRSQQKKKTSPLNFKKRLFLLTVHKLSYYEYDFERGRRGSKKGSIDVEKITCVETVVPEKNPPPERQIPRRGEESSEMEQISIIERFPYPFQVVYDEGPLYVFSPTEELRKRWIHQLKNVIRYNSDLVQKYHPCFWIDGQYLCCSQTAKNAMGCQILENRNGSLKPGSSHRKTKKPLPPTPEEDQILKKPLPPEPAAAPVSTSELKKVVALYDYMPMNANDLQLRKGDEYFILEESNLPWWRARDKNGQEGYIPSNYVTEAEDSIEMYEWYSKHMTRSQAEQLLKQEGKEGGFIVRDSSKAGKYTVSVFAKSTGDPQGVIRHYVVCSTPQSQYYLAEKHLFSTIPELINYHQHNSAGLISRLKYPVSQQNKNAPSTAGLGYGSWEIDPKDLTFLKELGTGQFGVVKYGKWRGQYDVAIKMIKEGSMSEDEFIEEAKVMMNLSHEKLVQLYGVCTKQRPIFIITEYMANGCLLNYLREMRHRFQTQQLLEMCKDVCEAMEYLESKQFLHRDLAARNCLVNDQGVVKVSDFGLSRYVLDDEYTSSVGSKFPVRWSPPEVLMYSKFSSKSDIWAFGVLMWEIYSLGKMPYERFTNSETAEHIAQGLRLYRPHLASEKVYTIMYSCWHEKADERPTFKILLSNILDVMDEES
Method: Btk Enzyme Activity Assay Methods
BTK enzymatic activity was determined with the LANCE (Lanthanide Chelate Excite) TR-FRET (Time-resolved fluorescence resonance energy transfer) assay. […] After 60 minutes incubation with detection reagents, reaction plates were read on a PerkinElmer EnVision plate reader using standard TR-FRET protocol.

HeLa cells = experiment: [3H] Adenosine uptake assay; format: cell-based; conditions: accumulation of tritiated adenosine into HeLa cells, compound concentration range 10 μM to 0.032 nM, read-out: ADU inhibition IC50 (adenosine uptake inhibition potency)
Outline: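 Accumulation of tritiated adenosine in adherent HeLa cells, detected by scintillant-plate coincidence counting, gives IC50 via 4-parameter robust fit. Compound (constant 0.25% DMSO) applied 30 min ahead, then 60 min radiolabel exposure (added from 500 nM solution), ambient conditions, HBSS with 5% FBS.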

Row | IC50 [1] [µM] | IC50 (HeLa cells; Homo sapiens, HeLa) [µM] | IC50 (HeLa cells) [µM] | Structure (SMILES)
1 | 0.009 | 10 | – | CCOc1cc(C(=O)Nc2cc(C(F)(F)F)n(C)n2)ccc1-c1nc([C@@H]2CC[C@@](C(=O)O)(C(C)C)C2)n2ccnc(N)c12 [Example 52, (1S,3R)-3-[8-amino-1-(2-ethoxy-4-{[1-methyl-5-(trifluoromethyl)-1H-pyrazol-3-yl]carbamoyl}phenyl)imidazo[1,5-a]pyrazin-3-yl]-1-(1-methylethyl) cyclopentane-carboxylic acid]
2 | 0.00096 | 4.51 | – | C[C@@]1(C(=O)O)CCC[C@H](c2nc(-c3ccc(C(=O)Nc4cc(C5CC5)ccn4)cc3F)c3c(N)nccn23)C1 [Example 160, (1R,3S)-3-(8-amino-1-{4-[(4-cyclopropylpyridin-2-yl)carbamoyl]-2-fluorophenyl}imidazo [1,5-a]pyrazin-3-yl)-1-methylcyclohexane-carboxylic acid]
3 | 0.0024 | 9.48 | – | C[C@]1(C(=O)O)CC[C@@](C)(c2nc(-c3ccc(C(=O)Nc4cc(C(F)(F)F)ccn4)cc3)c3c(N)nccn23)C1 [Example 80, (1S,3R)-3-[8-amino-1-(4-{[4-(trifluoromethyl)pyridin-2-yl]carbamoyl}phenyl)imidazo[1,5-a]pyrazin-3-yl]-1,3-dimethylcyclopentane carboxylic acid]
4 | 0.0028 | 3.08 | – | C[C@H]1CO[C@@H](c2nc(-c3ccc(C(=O)Nc4cc(C(F)(F)F)ccn4)cc3)c3c(N)nccn23)CN1[C@H]1CC[C@@](C)(C(=O)O)CC1 [Example 192, cis-4-{(2R,5S)-2-[8-amino-1-(4-{[4-(trifluoromethyl)pyridin-2-yl]carbamoyl}phenyl)imidazo [1,5-a]pyrazin-3-yl]-5-methylmorpholin-4-yl}-1-methylcyclohexanecarboxylic acid]
5 | 0.00065 | 1.19 | – | C[C@H]1CO[C@@H](c2nc(-c3ccc(C(=O)Nc4cc(C(F)(F)F)ccn4)cc3)c3c(N)nccn23)CN1[C@H]1CC[C@](C)(C(=O)O)CC1 [Example 191, trans-4-{(2R,5S)-2-[8-amino-1-(4-{[4-(trifluoromethyl)pyridin-2-yl]carbamoyl}phenyl)imidazo [1,5-a]pyrazin-3-yl]-5-methylmorpholin-4-yl}-1-methylcyclohexanecarboxylic acid]
6 | 0.00039 | 4.91 | – | CCOc1cc(C(=O)Nc2cc(C(F)(F)F)ccn2)ccc1-c1nc(C23CCCC(C(=O)O)(CC2)CC3)n2ccnc(N)c12 [Example 67, 5-[8-amino-1-(2-ethoxy-4-{[4-(trifluoromethyl)pyridin-2-yl]carbamoyl}phenyl)imidazo[1,5-a]pyrazin-3-yl]bicyclo[3.2.2] nonane-1-carboxylic acid]
7 | 0.00097 | 5.58 | – | Nc1nccn2c(-c3ccc(C(=O)O)cc3)nc(-c3ccc(C(=O)Nc4cc(C(F)(F)F)ccn4)cc3)c12 [Example 26, 4-[8-amino-1-(4-{[4-(trifluoromethyl)pyridin-2-yl]carbamoyl}phenyl)imidazo[1,5-a]pyrazin-3-yl]benzoic acid]
8 | 0.00056 | 6.87 | – | CCOc1cc(C(=O)Nc2cc(C(F)(F)F)ccn2)c(F)cc1-c1nc(C23CCC(C(=O)O)(CC2)CC3)n2ccnc(N)c12 [Example 149, 4-[8-amino-1-(2-ethoxy-5-fluoro-4-{[4-(trifluoromethyl)pyridin-2-yl]carbamoyl}phenyl)imidazo[1,5-a]pyrazin-3-yl]bicyclo[2.2.2] octane-1-carboxylic acid]
9 | 0.00042 | 1.69 | – | C[C@H]1CO[C@@H](c2nc(-c3ccc(C(=O)Nc4cc(C(F)(F)F)ccn4)cc3F)c3c(N)ncc(Cl)n23)CN1[C@H]1CC[C@](C)(C(=O)O)CC1 [Example 200, trans-4-{(2R,5S)-2-[8-amino-5-chloro-1-(2-fluoro-4-{[4-(trifluoromethyl)pyridin-2-yl]carbamoyl}phenyl)imidazo [1,5-a]pyrazin-3-yl]-5-methylmorpholin-4-yl}-1-methylcyclohexanecarboxylic acid]
10 | 0.00037 | 10 | – | C[C@H]1CO[C@@H](c2nc(-c3ccc(C(=O)Nc4cc(C(F)(F)F)ccn4)cc3)c3c(N)nccn23)CN1C(=O)C12CC(C(=O)O)(C1)C2 [Example 175, 3-((2R,5S)-2-(8-amino-1-(4-((4-(trifluoromethyl)pyridin-2-yl)carbamoyl)phenyl)imidazo[1,5-a]pyrazin-3-yl)-5-methylmorpholine-4-carbonyl)bicyclo[1.1.1]pentane-1-carboxylic acid]
11 | 0.0026 | 10 | – | Nc1nccn2c([C@H]3CC[C@@H](C(=O)N4CCC[C@@H]4C(=O)O)C3)nc(-c3ccc(C(=O)Nc4cc(C(F)(F)F)ccn4)cc3)c12 [Example 18, 1-({(1R,3S)-3-[8-amino-1-(4-{[4-(trifluoromethyl)pyridin-2-yl]carbamoyl}phenyl)imidazo[1,5-a]pyrazin-3-yl]cyclopentyl}carbonyl)-D-proline]
12 | 0.0052 | 2.98 | – | CC1(C)[C@H](C(=O)O)CC[C@]1(C)c1nc(-c2ccc(C(=O)Nc3cc(C(F)(F)F)ccn3)cc2)c2c(N)nccn12 [Example 141, (1R,3S)-3-[8-amino-1-(4-{[4-(trifluoromethyl)pyridin-2-yl]carbamoyl}phenyl)imidazo[1,5-a]pyrazin-3-yl]-2,2,3-trimethylcyclopentane carboxylic acid]
13 | 0.00041 | 4.19 | – | CC(C)(C(=O)O)N1CC(=O)N2C[C@H](c3nc(-c4ccc(C(=O)Nc5cc(C(F)(F)F)ccn5)cc4)c4c(N)nccn34)CC[C@H]2C1 [Example 43, 2-{(7R,9aS)-7-[8-amino-1-(4-{[4-(trifluoromethyl)pyridin-2-yl]carbamoyl}phenyl)imidazo[1,5-a]pyrazin-3-yl]-4-oxooctahydro-2H-pyrido[1,2-a]pyrazin-2-yl}-2-methylpropanoic acid]
14 | 0.0013 | 6.42 | 3.94 | COc1cc(C(=O)Nc2cc(C(F)(F)F)ccn2)ccc1-c1nc([C@H]2CN(C3CCC(C)(C(=O)O)CC3)CCO2)n2ccnc(N)c12 (stereo partly drawn) [Example 180, 4-{(2R)-2-[8-amino-1-(2-methoxy-4-{[4-(trifluoromethyl)pyridin-2-yl]carbamoyl}phenyl)imidazo [1,5-a]pyrazin-3-yl]morpholin-4-yl}-1-methylcyclohexanecarboxylic acid]
15 | 0.00072 | – | 4.01 | CC(C)C1(C(=O)O)CCC(C)(c2nc(-c3ccc(C(=O)Nc4cc(C(F)(F)F)ccn4)cc3)c3c(N)nccn23)C1 (centres unmarked) [Example 143, 3-[8-amino-1-(4-{[4-(trifluoromethyl)pyridin-2-yl]carbamoyl}phenyl)imidazo[1,5-a]pyrazin-3-yl]-3-methyl-1-(1-methylethyl)cyclopentane-carboxylic acid]
16 | 0.0013 | 5.14 | – | CCOc1cc(C(=O)Nc2cc(C(F)(F)F)ccn2)ccc1-c1nc(C2(C)CCC(C)(C(=O)O)CC2)n2ccnc(N)c12 (centres unmarked) [Example 78, 4-[8-amino-1-(2-ethoxy-4-{[4-(trifluoromethyl)pyridin-2-yl]carbamoyl}phenyl)imidazo[1,5-a]pyrazin-3-yl]-1,4-dimethylcyclohexane-carboxylic acid]
17 | 0.00091 | 10 | – | COc1cc(C(=O)Nc2cc(C(F)(F)F)ccn2)cc(F)c1-c1nc(C23CCC(C(=O)O)(CC2)CC3)n2c(F)cnc(N)c12 [Example 122, 4-[8-amino-5-fluoro-1-(2-fluoro-6-methoxy-4-{[4-(trifluoromethyl)pyridin-2-yl]carbamoyl}phenyl)imidazo[1,5-a]pyrazin-3-yl]bicyclo[2.2.2] octane-1-carboxylic acid]
